Laboratory results: patent publication US6197963A, “Non-peptide peptidomimetics” (The Trustees of the University of Pennsylvania, priority 1998, dated 2001)
“Also recorded” adds a separate entry of the source. Like-named read-outs stand apart in the source and are kept apart here. Where a SMILES comes first, the peptide text is derived from it.

What was measured:
[1] = target: T1, human neurokinin-1 receptor (NK1R) (Homo sapiens, UniProt P25103); experiment: Displacement of 125I-substance P from human NK1R expressed in COS cells (Example 12); assay type: binding; details: 125I-substance P, COS cells (Example 12)
T1 construct: expressed in transfected cells; host or cells: COS cells
Description: The affinity of a variety of compounds for the substance P receptor was determined employing the following procedure.
To express the cloned human neurokinin-1 receptor (NK1R) transiently in COS, the cDNA for the human NK1R was cloned into the expression vector pCDM9 which was derived from pCDM8 (Invitrogen) by inserting the ampicillin resistance gene (nucleotide 1973 to 2964 from Bluescript SK+) into the Sac II site. Transfection of 20 μg of the plasmid DNA into 10 million COS cells was achieved by electroporation in 800 μl of the transfection buffer ([…], 1.2 mM MgCl2, 2.4 mM K2 HPO4, 0.6 mM KH2PO4, […], 10 mM HEPES pH 7.4) at 260 V and 950 μF using the IBI Genezapper (IBI, New Haven, Conn.). The cells were incubated in 10% fetal calf serum, 2 mM glutamine, 100 U/ml penicillin-streptomycin, and 90% DMEM media (Gibco, Grand Island, N.Y.) in 5% CO2 at 37° C. for three days before the binding assay.
The binding assay of human NK1R expressed in COS cells is based on the use of ^125 I-substance P (^125 I-SP, from DuPont, Boston, Mass.) as a radioactively labeled ligand which competes with unlabeled substance P or any other ligand for binding to the human NK1R. Monolayer cell cultures of COS were dissociated by the non-enzymatic solution (Specialty Media, Lavallette, N.J.) and resuspended in appropriate volume of the bind buffer (50 mM Tris pH 7.5, 5 mM MnCl2, 150 mM NaCl, 0.04 mg/ml bacitracin, 0.004 mg/ml leupeptin, 0.2 mg/ml BSA, 0.01 mM phosphoramidon) such that 200 μl of the cell suspension would give rise to about 10,000 cpm of specific ^125 I-SP binding (approximately 50,000 to 200,000 cells). In the binding assay, 200 μl of cells were added to a tube containing 20 μl of 1.5 to 2.5 nM of ^125 I-SP and 20 μl of unlabeled substance P or any other test compound. The tubes were incubated at 4° C. or at room temperature for 1 hour with gentle shaking. The bound radioactivity was separated from unbound radioactivity by GF/C filter (Brandel, Gaithersburg, Md.) which was pre-wetted with 0.1 polyethylenimine. The filter was washed with 3 ml of wash buffer (50 Tris pH 7.5, 5 mM MnCl2, 150 mM NaCl) three times and its radioactivity was determined by gamma counter.
A variety of compounds were tested according to the COS cell procedure. The concentration of compound required to inhibit the binding of substance P to the human neurokinin-1 receptor by 50% was measured.

NK-1 receptor [2] = target: T2, NK-1 receptor (Homo sapiens, UniProt P25103); details: cited from earlier work
five hSSTRs = experiment: Profile / average over the five human SRIF receptor subtypes; assay type: binding
β2-adrenergic receptor = details: cited from earlier work
[3] = system: SRIF receptors on AtT-20 cells; details: cited from earlier work; for affinity for the SRIF receptor: relative to O-linked isomers or other glycosides
hSSTR4 = hSSTR4 (Homo sapiens, UniProt P31391); experiment: Binding at human SRIF receptor subtype hSSTR4
NK-1 receptor [4] = target: T2, NK-1 receptor; experiment: Binding at the NK-1 receptor (Examples 109-110)
hSSTR3 = hSSTR3 (Homo sapiens, UniProt P32745); experiment: Binding at human SRIF receptor subtype hSSTR3
[5] = system: SRIF receptors on AtT-20 cells; experiment: Binding at SRIF receptors of AtT-20 cells (Examples 104-110, Tables 1-3); design: species or system mouse; key to AtT-20 cells IC50: DNB: Did Not Bind
SRIF receptor = experiment: Displacement of 125I-CGP-23996 from SRIF receptor on AtT-20 cells (Example 13); assay type: binding, mouse; details: displacement of 125I-CGP-23996, AtT-20 cells (Example 13)
hSSTR5 = hSSTR5 (Homo sapiens, UniProt P35346); experiment: Binding at human SRIF receptor subtype hSSTR5; details: for Ki: TABLE 3, read-out: hSSTR 5 Ki
hSSTR1 = hSSTR1 (Homo sapiens, UniProt P30872); experiment: Binding at human SRIF receptor subtype hSSTR1
hSSTR2 = hSSTR2 (Homo sapiens, UniProt P30874); experiment: Binding at human SRIF receptor subtype hSSTR2
[6] = TABLE 2 (Example 106), read-out: AtT-20 cells IC50
[7] = TABLE 3 (Example 108), read-out: AtT-20 IC50

Sequence of hSSTR2 (P30874 whole entry): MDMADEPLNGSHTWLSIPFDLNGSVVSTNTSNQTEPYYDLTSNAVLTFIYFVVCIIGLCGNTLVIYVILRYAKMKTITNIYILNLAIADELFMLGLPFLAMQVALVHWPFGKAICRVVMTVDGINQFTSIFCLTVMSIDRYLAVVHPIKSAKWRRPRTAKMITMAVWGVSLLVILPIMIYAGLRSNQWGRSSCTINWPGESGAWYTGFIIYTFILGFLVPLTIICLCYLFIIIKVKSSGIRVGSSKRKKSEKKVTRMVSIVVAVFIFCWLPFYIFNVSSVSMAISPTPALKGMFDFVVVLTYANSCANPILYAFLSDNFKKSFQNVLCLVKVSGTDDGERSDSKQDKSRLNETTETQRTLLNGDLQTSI
T1 sequence (P25103 whole entry): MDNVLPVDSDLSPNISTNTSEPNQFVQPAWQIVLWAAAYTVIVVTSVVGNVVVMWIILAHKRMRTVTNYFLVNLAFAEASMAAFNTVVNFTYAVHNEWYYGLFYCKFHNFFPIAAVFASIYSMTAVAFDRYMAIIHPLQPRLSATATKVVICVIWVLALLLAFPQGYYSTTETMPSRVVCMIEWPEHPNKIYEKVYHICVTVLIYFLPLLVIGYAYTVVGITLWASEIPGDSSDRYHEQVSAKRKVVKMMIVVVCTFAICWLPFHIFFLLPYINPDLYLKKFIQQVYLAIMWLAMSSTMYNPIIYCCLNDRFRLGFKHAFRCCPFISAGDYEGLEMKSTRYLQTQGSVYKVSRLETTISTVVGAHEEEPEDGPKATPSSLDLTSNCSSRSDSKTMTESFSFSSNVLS
T2 sequence (P25103 whole entry): as above
Sequence of hSSTR5 (P35346 whole entry): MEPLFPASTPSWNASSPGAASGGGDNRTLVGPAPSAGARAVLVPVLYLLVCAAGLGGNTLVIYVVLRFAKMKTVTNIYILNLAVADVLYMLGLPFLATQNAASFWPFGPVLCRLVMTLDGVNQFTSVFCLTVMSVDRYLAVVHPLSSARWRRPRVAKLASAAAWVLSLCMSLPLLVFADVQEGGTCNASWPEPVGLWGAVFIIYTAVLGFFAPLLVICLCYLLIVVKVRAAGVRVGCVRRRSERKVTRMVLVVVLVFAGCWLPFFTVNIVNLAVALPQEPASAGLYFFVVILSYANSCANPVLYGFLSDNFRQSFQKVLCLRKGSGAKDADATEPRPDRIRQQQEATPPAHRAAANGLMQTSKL
Sequence of hSSTR3 (P32745 whole entry): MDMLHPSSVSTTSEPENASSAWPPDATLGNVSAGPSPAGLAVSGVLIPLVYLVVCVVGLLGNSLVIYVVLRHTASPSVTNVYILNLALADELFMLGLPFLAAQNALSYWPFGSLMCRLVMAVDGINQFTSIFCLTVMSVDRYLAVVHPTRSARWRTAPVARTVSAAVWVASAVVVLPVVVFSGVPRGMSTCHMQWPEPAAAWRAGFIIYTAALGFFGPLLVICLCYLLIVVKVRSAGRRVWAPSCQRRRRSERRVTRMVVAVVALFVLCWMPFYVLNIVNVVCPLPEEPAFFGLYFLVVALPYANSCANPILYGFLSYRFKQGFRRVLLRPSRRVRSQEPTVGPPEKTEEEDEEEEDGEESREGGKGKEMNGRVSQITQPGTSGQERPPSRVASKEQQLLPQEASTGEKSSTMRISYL
Sequence of hSSTR4 (P31391 whole entry): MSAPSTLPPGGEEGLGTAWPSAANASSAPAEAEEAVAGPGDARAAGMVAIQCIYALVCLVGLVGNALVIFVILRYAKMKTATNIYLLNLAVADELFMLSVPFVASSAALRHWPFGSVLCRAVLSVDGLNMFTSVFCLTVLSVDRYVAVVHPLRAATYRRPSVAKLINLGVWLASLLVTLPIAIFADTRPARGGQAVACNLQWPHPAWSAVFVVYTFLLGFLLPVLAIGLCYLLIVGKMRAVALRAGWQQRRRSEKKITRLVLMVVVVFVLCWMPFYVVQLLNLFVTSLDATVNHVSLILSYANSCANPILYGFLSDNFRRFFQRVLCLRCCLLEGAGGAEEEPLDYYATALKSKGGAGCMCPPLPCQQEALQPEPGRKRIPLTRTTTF
Sequence of hSSTR1 (P30872 whole entry): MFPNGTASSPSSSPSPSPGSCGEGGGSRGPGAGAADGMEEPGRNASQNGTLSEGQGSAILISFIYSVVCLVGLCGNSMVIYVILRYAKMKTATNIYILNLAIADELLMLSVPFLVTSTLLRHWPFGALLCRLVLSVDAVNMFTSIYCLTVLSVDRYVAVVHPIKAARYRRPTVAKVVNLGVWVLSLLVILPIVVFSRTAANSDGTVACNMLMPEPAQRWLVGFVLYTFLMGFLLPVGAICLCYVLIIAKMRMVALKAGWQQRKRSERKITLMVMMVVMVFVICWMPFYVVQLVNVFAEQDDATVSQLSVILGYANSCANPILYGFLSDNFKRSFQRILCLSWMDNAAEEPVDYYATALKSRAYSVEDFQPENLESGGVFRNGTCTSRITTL

| SMILES | IC50 [1] | hSSTR subtype affinity profile (five hSSTRs) | Ki (hSSTR4; TABLE 3, read-out: hSSTR 4 Ki) | Ki (hSSTR3; TABLE 3, read-out: hSSTR 3 Ki) | IC50 (SRIF receptor; read-out: IC50) | Ki (hSSTR5) | Ki (hSSTR1; TABLE 3, read-out: hSSTR 1 Ki) | Ki (hSSTR2; TABLE 3, read-out: hSSTR 2 Ki) | other results |
| --- | --- | --- | --- | --- | --- | --- | --- | --- | --- |
| OC[C@@H]1C[C@H](OCc2ccccc2)[C@@H](OCc2ccccc2)[C@H](OCCc2c[nH]c3ccccc23)O1 [2-Indol-3-yl-ethyl-2,3,-di-O-benzyl-4-deoxy-β-D-glucopyranoside] | 0.4 µM | – | – | – | – | – | – | – | – |
| NCCCCCOC[C@H]1O[C@@H](OCCc2c[nH]c3ccccc23)[C@H](OCc2ccccc2)[C@@H](OCc2ccccc2)[C@@H]1OCc1ccccc1 [III-4a, 2-(1H-Indol-3-yl)ethyl 2,3,4-Tri-O-benzyl-6-O-(5-aminopentyl)-β-D-glucopyranoside] | – | high affinities for hSSTR2 and hSSTR4 and a low affinity for SSTR1 | 1.1 µM | 2.8 µM | – | – | – | – | binding / antagonism at the NK-1 receptor (NK-1 receptor [2]): potent antagonist ligands; binding / antagonism at the β2-adrenergic receptor (β2-adrenergic receptor): bind the β2 -adrenergic receptor as antagonists; IC50 ([3]; read-out: IC50 at somatostatin receptors of AtT-20 cells, Nicolaou and Hirschmann, ESCOM 1990): ~15 µM; binding of the NK-1 receptor (NK-1 receptor [4]): did not bind; IC50 (NK-1 receptor [4]; read-out: affinity at the NK-1 receptor): 0.15 µM |
| OCCCCCNC[C@H]1O[C@@H](OCCc2c[nH]c3ccccc23)[C@H](OCc2ccccc2)[C@@H](OCc2ccccc2)[C@@H]1OCc1ccccc1 [III-4e, 2-(1H-Indol-3-yl)ethyl 2,3,4-Tri-O-benzyl-6-amino-6-deoxy-6-N-(5-hydroxypentyl)-β-D-glucopyranoside] | 0.12 µM | – | – | – | 9.5 µM | – | – | – | IC50 [5, 6]: 14 µM; affinity for the SRIF receptor [3]: about the same as those of III-4a and III-5b |
| OCCCCCNC[C@H]1O[C@@H](OCCc2c[nH]c3ccccc23)[C@H](OCc2ccccc2)C[C@@H]1OCc1ccccc1 [III-5c, 2-(1H-Indol-3-yl)ethyl 2,4-Di-O-benzyl-3,6-dideoxy-6-amino-6-N-(5-hydroxypentyl)-β-D-glucopyranoside] | 0.18 µM | – | – | – | 1.3 µM | – | – | – | IC50 [5, 6]: 5.1 µM; affinity for the SRIF receptor [3]: about the same as those of III-4a and III-5b |
| CO[C@@H]1O[C@H](COCCCCCN)[C@@H](OCc2ccccc2)[C@H](OCc2ccccc2)[C@H]1OCc1ccccc1 [III-8a, Methyl 2,3,4-Tri-O-benzyl-6-O-(5-aminopentyl)-β-D-glucopyranoside] | – | highest affinity for hSSTR4 | 2 µM | 3 µM | – | 3 µM | 2.4 µM | 4.6 µM | IC50 ([5]; TABLE 1 (Example 105), read-out: AtT-20 cells 50 IC): 5.9 µM; IC50 [5, 7]: 5.9 µM; IC50 ([5]; read-out: IC50 at AtT-20 cell membranes): 5.9 µM |
| CO[C@@H]1O[C@H](CO)[C@@H](OCc2ccccc2)[C@H](OCc2ccccc2)[C@H]1OCc1ccccc1 [III-46] | 1 µM | – | – | – | – | – | – | – | IC50 (SRIF receptor): does not bind |
| NCCCCCOC[C@@H]1O[C@H](OCCc2c[nH]c3ccccc23)[C@@H](OCc2ccccc2)[C@H](OCc2ccccc2)[C@H]1OCc1ccccc1 [IV-11, 2-(1H-Indol-3-yl)ethyl 2,3,4-tri-O-benzyl-6-O-(5'-aminopentyl)-β-L-glucopyranoside] | – | high affinities for hSSTR2 and hSSTR4 and a low affinity for SSTR1; also recorded: higher relative affinity for SSTR5 and a lesser relative affinity for SSTR3 | 2 µM | 6.4 µM | – | – | – | – | IC50 (NK-1 receptor [4]; read-out: IC50 at the NK-1 receptor): 0.15 µM |
| NCCCCC(N)NC[C@H]1O[C@@H](OCCc2c[nH]c3ccccc23)[C@H](OCc2ccccc2)[C@@H](OCc2ccccc2)[C@@H]1OCc1ccccc1 (stereo partly drawn) [IV-42, 2-(1H-indol-3-yl)ethyl 2,3,4-tri-O-benzyl-6-N-(1',5'-diamino-pentyl)-β-D-glucopyranoside] | – | – | 0.5 µM | 0.6 µM | – | 1.3 µM | 2.1 µM | 0.6 µM | activity / affinity at SRIF receptors of AtT-20 cells [5]: did not result in an increase in affinity; AtT-20 cells IC50 ([5]; TABLE 2 (Example 106)): DNB; IC50 [5, 7]: 13 µM; Ki (five hSSTRs; average over hSSTRs): 1 µM; affinity at SSTR 4 (hSSTR4): submicromolar affinities; affinity at SSTR 3 (hSSTR3): submicromolar affinities; affinity at SSTR 2 (hSSTR2): submicromolar affinities |
| NCCCCCOC[C@H]1O[C@@H](OCCc2c[nH]c3ccccc23)[C@H](OCc2c[nH]cn2)C[C@@H]1OCc1ccccc1 [IV-60, 2-(1H-Indol-3-yl)ethyl 2-O-(4'-methylene-1H-imidazole)-3-deoxy-4-O-benzyl-6-O-(5'-aminopentyl)-β-D-glucopyranoside] | – | atypically high affinity for hSSTR5 | 3 µM | 6.2 µM | – | 4 µM | 6.8 µM | 4.6 µM | IC50 [5, 7]: 4.1 µM |
| NCCCCCOC[C@@H]1O[C@H](OCCc2c[nH]c3ccccc23)[C@H](OCc2c[nH]cn2)[C@H](OCc2ccccc2)[C@H]1OCc1ccccc1 [IV-72, 2-(1H-indol-3-yl)ethyl 2-O-(4'-methylene-1H-imidazole)-3,4-di-O-benzyl-6-O-(5'-amino-pentyl)-β-L-mannopyranoside] | – | – | 0.1 µM | 0.9 µM | – | > 10 µM | 0.3 µM | 0.8 µM | binding of SSTR5 (hSSTR5): failed to bind SSTR5; Ki (hSSTR1; read-out: Ki at SSTR 1): 0.3 µM; Ki (hSSTR4; read-out: Ki at SSTR 4): 0.1 µM; Ki (hSSTR3; read-out: Ki at SSTR 3): 0.9 µM; Ki (hSSTR2; read-out: Ki at SSTR 2): 0.8 µM |
| C[C@@H](O)[C@@H]1NC(=O)[C@H](CCCCN)NC(=O)[C@@H](Cc2c[nH]c3ccccc23)NC(=O)[C@H](Cc2ccccc2)NC(=O)[C@@H]2CCCN2C(=O)[C@H](Cc2ccccc2)NC1=O [L-363,301, reference compound] (HELM PEPTIDE1{P.F.[dW].K.T.F}$PEPTIDE1,PEPTIDE1,1:R1-6:R2$$$V2.0) | – | – | – | – | 0.0187 µM | – | – | – | binding / antagonism at the NK-1 receptor (NK-1 receptor [2]): do not bind; binding / antagonism at the β2-adrenergic receptor (β2-adrenergic receptor): do not bind |
| CC(C)[C@@H]1NC(=O)[C@H](CCCCN)NC(=O)[C@@H](Cc2c[nH]c3ccccc23)NC(=O)[C@H](Cc2ccc(O)cc2)NC(=O)[C@H](C)N(C)C(=O)[C@H](Cc2ccccc2)NC1=O [MK 678, reference compound] | – | – | – | – | 0.06 µM | – | – | – | – |
